This note sets out measurements from US20030203963A1, “Antimicrobial agent” (priority 2001, published 2003).

The structures appear in SMILES notation.

In experiment [1] the test system is Lb. sake A10. The experiment is described as follows: Bioscreen growth inhibition test. The class given is cell-based, Lactobacillus sake. Conditions: for APP level causing significant inhibition / APP level causing total inhibition: BS010411, 24 h at 30° C. How it is done: (§1) For broth cultures and Bioscreen testing most bacteria were grown in Brain Heart Infusion (BHI, Oxoid, pH 7.4). Lactobacillus sake A10 was grown in de Man, Rogosa, Sharpe medium ([…], Oxoid). Yeasts were grown in Sabouraud Liquid medium (SLM, Oxoid). Most bacteria were cultured at 30° C. Lactic acid bacteria were grown on solid medium in enriched CO2 atmosphere. Clostridium species were grown in Reinforced Clostridial Medium (RCM) at 37° C. anaerobically. Brochothrix thermosphacta fungi and yeasts were grown at 25° C. Fungi were cultured on Malt Extract Agar (MEA, Oxoid).
(§2) An automated Microbiology Reader Bioscreen C was used to measure growth curves of the strains in the presence and absence of APP. The Bioscreen C measures the development of turbidity (i.e. growth) kinetically by vertical photometry in 200 wells of a honeycomb microtitre plate, simultaneously. The system consists of a Bioscreen C analyser, which is an incubator and measurement unit, integrated with a PC, software (BioLink v 5.30), printer and a ‘Honeycomb 2’ cuvette multiwell plate. Growth curve data can be analysed within the BioLink software or exported to programs such as Excel.
(§3) Broth culture media were dispensed in 270 μl volumes into the wells as directed. Serial dilutions of a filter-sterilised APP stock solution were then dispensed into the same wells, as appropriate. The wells were inoculated with 30 μl of an appropriately diluted overnight broth culture or spore suspension, to give a final inoculum level of […]. The tests were incubated in the Bioscreen C for either 24 h at 30° C., or 72 h at 25° C. (depending on the micro-organism under investigation) with readings taken every 20 minutes after the trays were shaken. After the incubation period was complete the data were exported to Excel for analysis.

Experiment [2] relates to Br. thermosphacta CRA7883. The experiment can be described thus: Bioscreen growth inhibition test. The class given is cell-based, Brochothrix thermosphacta. The settings on record: BS010420, 72 h at 25° C., APP20010213. How it is done:
as §1, §2
(§4) Broth culture media were dispensed in 270 μl volumes into the wells as directed. […] (depending on the micro-organism under investigation) with readings taken every 20 minutes after the trays were shaken. […]

The test system of experiment [3] is S cerevisiae var. paradoxus H103. The experiment is described as follows: Bioscreen growth inhibition test. The class given is cell-based, Saccharomyces cerevisiae var. paradoxus. The settings on record: APP 213, BS010420, 72 h/25° C. How it is done: as §1, §2, §4
Experiment [4] relates to Salmonella S19. The experiment is described as follows: Chicken soup trial at 8° C. The class given is cell-based, Salmonella sp. Conditions: 500-1000 ppm; chicken soup at 8° C., TCSM010521, APP215. The text has this:
(§5) A local supermarket brand of cream of chicken soup was used as a model food system. 600 g packs were purchased from the local supermarket. This was a ‘fresh home-made type’ of soup that was stored in the chill cabinet, with a short shelf life. It was chosen because it is a rich, nutritious food system containing a range of food components including meat, dairy and vegetable.
(§6) Ingredients were labelled as: chicken stock (water, duck fat, chicken, salt, flavourings, yeast extracts, pork gelatine, glucose syrup, vegetable concentrate, milk protein, sugar, malto-dextrin, vegetable oil, citric acid, lactose, chicken fat), ilk, chicken (9%), cream (8%), onion, potato, vegetable oil, modified maize starch, wheat flour, lemon juice, salt, white pepper. pH 5.912. Protein: 3.3%; carbohydrate: 4.7%; fat: 7.2%; fibre: 0.2%; sodium: 0.1%
(§7) For the test the soup was mixed 2:1 in water (to facilitate sampling and mixing) and sterilised by autoclaving at 121° C. for 15 minutes. For each experiment the pH of the soup was recorded; this was between pH 5.79-5.88.
For TCS010521/8 (incubated at 8° C.), samples were prepared in 27.8 g quantities. 1.5 g of an APP stock solution was added, and the tests inoculated with 0.3 ml of a suitably diluted cell or spore suspension to give a final inoculum of ca. 10^3 cfu/g. APP was tested at 0, 500 and 1000 ppm, and batch number APP20010213 (at 169 mg/ml) was used. […]

Experiment [5] deals with L. monocytogenes 272. The experiment is described as follows: Chicken soup trial at 20° C. The class given is cell-based, Listeria monocytogenes. Conditions: chicken soup at 20° C., TCSM010430, APP20010213.
Text: as §5, §6, §7
(§8) For TCS010430/20 (incubated at 20° C.) samples were prepared in 18.8 g quantities, to which 1 g of a suitable filter-sterilised APP stock solution was added and an appropriately diluted 0.2 ml inoculum. Great care was again taken to ensure homogeneous distribution of the APP and micro-organisms. […]

Experiment [6] deals with S. cerevisiae 9763. The experiment can be described thus: Chicken soup trial at 20° C. The class given is cell-based, Saccharomyces cerevisiae. Conditions: 2000 ppm; chicken soup at 20° C., TCSM010430, APP20010213.
Text: as §5, §6, §7, §8

Experiment [7] relates to B. cereus. The experiment is described as follows: Test in milk. The class given is cell-based, Bacillus cereus. The settings on record: TMGB010605; for Control for: milk at 20° C. How it is done: 8.9 ml samples of UHT milk containing 0.5% glucose and the indicator bromocresol purple (0.01%) were prepared and sterilised by autoclaving. The pH before APP addition was pH 6.65. Appropriate stock solutions of APP batch number APP20010215 (at 138 mg/ml) were prepared and filter sterilised. 1 ml of each was added to the milk to prepare tests containing 0, 1000 and 2000 ppm APP. Tests were then inoculated with 100 μl of diluted overnight broth cultures or spore suspensions to give a final inoculum level of ca. 10^3 cfu/ml. These and uninoculated tests were incubated at 20 and 8° C. and examined daily for visible changes compared to uninoculated control.

Experiment [8] has as its system TAVC. The experiment is described as follows: Inoculated test in raw meat. The class given is cell-based. The settings on record: 2000 ppm; inoculated raw meat at 8° C., TRM010620; TAVC 10^6 rising to >10^7 cfu/g. How it is done: Fresh beef steak was purchased from the local butcher, and minced on clean machinery. The raw meat (ca. pH 6.2) was divided into 8×90 samples and inoculated-with 10^3 cfu/ml of test organisms. The meat was mixed thoroughly using a stomacher. 10 g of SDW or 2% APP (Batch number APP20010215) was added, and the meat was again thoroughly mixed. An initial viable count was taken, the meat was incubated at 8° C., and sampled on the following days using non-selective agar (MPCA) and selective agar: XLD for Salmonella; Oxford selective agar (Listeria monocytogenes); and STAA agar (Brochothrix thermosphacta). The pH of the raw meat was pH 5.3.

The subject of experiment [9] is Most yeasts. The experiment is described as follows: Lab media at optimum temperature (summary). The class given is cell-based. How it is done: as §1, §2, §3
Experiment [10] has as its system Salmonella spp. The experiment can be described thus: Lab media at optimum temperature (summary). The class given is cell-based. How it is done: as §1, §2, §3

`O=C1CC(CO)OC=C1O` (centres unmarked) [APP, Ascopyrone P]: the “APP level causing significant inhibition” value amounted to 250 ppm in experiment [1] (APP20010213), 250 ppm in experiment [1] (APP20010215), 2000 ppm in [2] and 2000 in experiment [3]. In addition, the “APP level causing total inhibition” value is 500 ppm in experiment [1] (APP20010213), 500 ppm in [1] (APP20010215), 4000 ppm in [2] and above 4000 in experiment [3]. The “Total inhibition (effect on growth of target organism by 2000 ppm APP)” value in [1] (Lab media at optimum temperature) is recorded as “Lb. sake”. The “Total inhibition for” value in [4] is “Total inhibition by 500-1000 ppm for 22 d”. Also, the Effect on growth entry in experiment [5] (1000 ppm) is reported as “No significant effect by 1000 ppm”; in experiment [5] (2000 ppm) it was “No total inhibition but reduction of growth rate only by 2000”; in experiment [6] it was “No effect with 2000 ppm”. In addition, the “Control for” value is 4 days in [7] (1000 ppm) and 6 days in [7] (2000 ppm). Also, the Control of growth entry in experiment [7] (2000 ppm, milk at 8° C.) was “No control observed”. In [8], the “Effect of APP” value is reported as “No significant effect”. For the same compound, in experiment [9], the “Effect on growth of target organism by 2000 ppm APP (remark in No inhibition column)” value is recorded as “(enhanced growth)”. Further, in [9], the “No inhibition (effect on growth of target organism by 2000 ppm APP)” value is “Most yeasts”. Moreover, the “Partial inhibition (effect on growth of target organism by 2000 ppm APP)” value in [10] is “Salmonella spp”.
